From ChEMBL document CHEMBL1132058, “Potent inhibitors of protein farnesyltransferase: heteroarenes as cysteine replacements” (Bioorg Med Chem Lett, 1999)

Experiments:
[1] = target: Protein farnesyltransferase (Homo sapiens, UniProt P49354+P49356); assay: Inhibitory activity against farnesyltransferase (FT) using SPA assay; type: protein-complex assay
[2] = system: NIH3T3; assay: (§1) Inhibition of H-ras processing in subconfluent H-Ras-transformed NIH3T3 cells; type: functional, cell-based; conditions: Mus musculus
[3] = system: NIH3T3; assay: as §1; type: functional, Mus musculus; design: concentration or dose not given beside the values
[4] = system: NIH3T3; assay: as §1; type: functional, Mus musculus
[5] = AUC value in dog after IV administration at a dose of 5 mg/kg; type: ADME, organism-based, Canis lupus familiaris; design: dose 5 mg/kg, route intravenous; conditions: plasma
[6] = Tmax value in dog after oral administration at a dose of 5 mg/kg; type: ADME, organism-based, Canis lupus familiaris; design: dose 5 mg/kg, route oral; conditions: in vivo
[7] = Bioavailability in dog after oral administration at a dose of 5 mg/kg; type: ADME, organism-based, Canis lupus familiaris; conditions: in vivo
[8] = Cmax value in rat after oral administration at a dose of 10 mg/kg; type: ADME, organism-based; design: dose 10 mg/kg, route oral; conditions: in vivo
[9] = Tmax value in rat after oral administration at a dose of 10 mg/kg; type: ADME, organism-based; design: dose 10 mg/kg, route oral; conditions: in vivo
[10] = Cmax value in dog after oral administration at a dose of 5 mg/kg; type: ADME, organism-based, Canis lupus familiaris; design: dose 5 mg/kg, route oral; conditions: in vivo
[11] = AUC value in dog after oral administration at a dose of 5 mg/kg; type: ADME, organism-based, Canis lupus familiaris; design: dose 5 mg/kg, route oral; conditions: plasma
[12] = AUC value in rat after oral administration at a dose of 10 mg/kg; type: ADME, organism-based; design: dose 10 mg/kg, route oral; conditions: plasma
[13] = AUC value in rat after IV administration at a dose of 10 mg/kg; type: ADME, organism-based; design: dose 10 mg/kg, route intravenous; conditions: plasma
[14] = Half life period in dog after IV administration at a dose of 5 mg/kg; type: ADME, organism-based, Canis lupus familiaris; design: dose 5 mg/kg, route intravenous; conditions: in vivo
[15] = Half life period in rat after IV administration at a dose of 10 mg/kg; type: ADME, organism-based; design: dose 10 mg/kg, route intravenous; conditions: in vivo
[16] = Bioavailability in rat after oral administration at a dose of 10 mg/kg; type: ADME, organism-based; conditions: in vivo
[17] = system: NIH3T3; assay: Inhibition of H-ras processing in subconfluent H-Ras-transformed NIH3T3 cells at 1 uM; type: functional; conditions: Mus musculus

| SMILES | IC50 [1] [nM] | Inhibition [3] [%] | also measured |
| --- | --- | --- | --- |
| CSCC[C@H](NC(=O)c1ccc(C#Cc2cncnc2)cc1-c1ccccc1C)C(=O)O | 140 |  |  |
| CSCC[C@H](NC(=O)c1ccc(/C=C/c2cnc3ccccc3c2)cc1-c1ccccc1C)C(=O)O | 16 |  | EC50 [2]: > 1000 nM |
| CSCC[C@H](NC(=O)c1ccc(/C=C/c2cncc(Cc3ccccc3)c2)cc1-c1ccccc1C)C(=O)O | 4.7 |  | EC50 [2]: > 1000 nM |
| CCCOc1ccncc1/C=C/c1ccc(C(=O)N[C@@H](CCSC)C(=O)O)c(-c2ccccc2C)c1 | 1.4 | 49 |  |
| CSCC[C@H](NC(=O)c1ccc(/C=C/c2cncc(-c3ccccc3)c2)cc1-c1ccccc1C)C(=O)O | 12 |  |  |
| CSCC[C@H](NC(=O)c1ccc(/C(C#N)=C\c2cccnc2)cc1-c1ccccc1C)C(=O)O | 3.6 | 60 |  |
| CSCC[C@H](NC(=O)c1ccc(/C=C/c2cncs2)cc1-c1ccccc1C)C(=O)O | 2.4 |  | EC50 [2]: > 1000 nM |
| CSCC[C@H](NC(=O)c1ccc(CCc2cccnc2)cc1-c1ccccc1C)C(=O)O | 2.1 |  |  |
| CSCC[C@H](NC(=O)c1ccc(/C=C/c2ccc(Oc3ccccc3)nc2)cc1-c1ccccc1C)C(=O)O | 26 |  |  |
| CSCC[C@H](NC(=O)c1ccc(C#Cc2cccnc2)cc1-c1ccccc1C)C(=O)O | 2.7 |  | EC50 [2]: 1000 nM |
| CSCC[C@H](NC(=O)c1ccc(NC[C@@H](N)CS)cc1-c1ccccc1)C(=O)O |  |  | EC50 [2]: 1000 nM |
| CSCC[C@H](NC(=O)c1ccc(/C=C/c2cnccc2C(=O)c2ccccc2)cc1-c1ccccc1C)C(=O)O | 0.92 |  | EC50 [2]: 1000 nM |
| CSCC[C@H](NC(=O)c1ccc(/C=C/c2cnccn2)cc1-c1ccccc1C)C(=O)O | 57 |  |  |
| COc1ccncc1/C=C/c1ccc(C(=O)N[C@@H](CCSC)C(=O)O)c(-c2ccccc2C)c1 | 2.9 | 66 |  |
| CSCC[C@H](NC(=O)c1ccc(/C=C/c2cncnc2)cc1-c1ccccc1C)C(=O)O | 25 |  |  |
| CSCC[C@H](NC(=O)c1ccc(/C(=C\c2cccnc2)C(=O)OC(C)(C)C)cc1-c1ccccc1C)C(=O)O | 15 | 35 |  |
| CSCC[C@H](NC(=O)c1ccc(/C(=C/c2cccnc2)C(=O)OC(C)(C)C)cc1-c1ccccc1C)C(=O)O | 0.91 | 80 |  |

Continued, in another order:

| IC50 [1] [nM] | SMILES | Inhibition [3] [%] | also measured |
| --- | --- | --- | --- |
| 0.63 | CSCC[C@H](NC(=O)c1ccc(/C=C/c2c[nH]cn2)cc1-c1ccccc1C)C(=O)O |  | EC50 [2]: > 1000 nM |
| 0.54 | CSCC[C@H](NC(=O)c1ccc(/C=C/c2cnccc2C(O)C2CCCCC2)cc1-c1ccccc1C)C(=O)O (stereo partly specified) | 63 |  |
| 0.15 | CSCC[C@H](NC(=O)c1ccc(CCc2c[nH]cn2)cc1-c1ccccc1C)C(=O)O |  | EC50 [2]: > 1000 nM |
| 0.66 | CSCC[C@H](NC(=O)c1ccc(/C=C/c2cnccc2C(O)(c2ccccc2)c2ccccc2)cc1-c1ccccc1C)C(=O)O |  | Inhibition [4]: 63% |
| 0.37 | CSCC[C@H](NC(=O)c1ccc(/C=C/c2cnccc2C(O)[C@]23C[C@H]4C[C@H](C[C@H](C4)C2)C3)cc1-c1ccccc1C)C(=O)O (stereo partly specified) | 61 |  |
| 0.12 | CSCC[C@H](NC(=O)c1ccc(/C=C/c2cnccc2C(=O)[C@]23C[C@H]4C[C@H](C[C@H](C4)C2)C3)cc1-c1ccccc1C)C(=O)O | 74 |  |
| 0.21 | CSCC[C@H](NC(=O)c1ccc(CCn2ccnc2)cc1-c1ccccc1C)C(=O)O |  | EC50 [2]: > 1000 nM |
| 0.3 | CSCC[C@H](NC(=O)c1ccc(/C=C/c2cnccc2OCc2cc(F)cc(F)c2)cc1-c1ccccc1C)C(=O)O |  |  |
| 0.29 | CSCC[C@H](NC(=O)c1ccc(/C=C/c2cnccc2O)cc1-c1ccccc1C)C(=O)O | 75 |  |
| 0.61 | CSCC[C@H](NC(=O)c1ccc(/C=C/c2cccnc2)cc1-c1ccccc1C)C(=O)O |  | AUC [5]: 10500 ng·h/mL; Tmax [6]: 22.8 min; bioavailability [7]: 24.5%; Inhibition [4]: 79%; Cmax [8]: 321 ng/mL; Tmax [9]: 19.8 min; Cmax [10]: 2830 ng/mL; AUC [11]: 2560 ng·h/mL; AUC [12]: 870 ng·h/mL; AUC [13]: 6660 ng·h/mL; half-life [14]: 33 min; half-life [15]: 129 min; bioavailability [16]: 23% |
| 0.29 | CSCC[C@H](NC(=O)c1ccc(/C=C/c2cnccc2Cl)cc1-c1ccccc1C)C(=O)O | 60 |  |
| 0.2 | CSCC[C@H](NC(=O)c1ccc(/C=C/n2ccnc2)cc1-c1ccccc1C)C(=O)O |  | EC50 [2]: > 1000 nM |
| 0.8 | CSCC[C@H](NC(=O)c1ccc(/C=C/c2cncc3ccccc23)cc1-c1ccccc1C)C(=O)O |  | inhibition at 1 µM [17]: 64% |
| 0.58 | CSCC[C@H](NC(=O)c1ccc(/C=C/c2cnccc2C(O)c2ccccc2)cc1-c1ccccc1C)C(=O)O (stereo partly specified) |  | Inhibition [4]: 67% |
| 0.4 | CSCC[C@H](NC(=O)c1ccc(COc2cccnc2)cc1-c1ccccc1C)C(=O)O |  |  |
| 0.59 | CSCC[C@H](NC(=O)c1ccc(/C(C#N)=C/c2cccnc2)cc1-c1ccccc1C)C(=O)O | 57 |  |
| 0.81 | CSCC[C@H](NC(=O)c1ccc(/C=C/c2cnccc2C2(O)CCCCC2)cc1-c1ccccc1C)C(=O)O | 74 |  |
